Results from patent publication US20260176320A1, “MODULATORS OF G-PROTEIN COUPLED RECEPTORS” (priority 2018, published 2026).
Like-named read-outs stand apart in the source and are kept apart here.

Key:
Assay type in all cases: cell-based
GLP-1R [1] = biological target: T1, GLP-1R (Homo sapiens, UniProt P43220); assay: PathHunter β-arrestin assay
Method in brief: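 β-Arrestin recruitment measured by PathHunter enzyme-fragment luminescence, read after 3 h dark incubation at room temperature with detection solution. Beforehand, agonist in a 22-point 2-fold series was applied in duplicate for 90 min at 37 °C to 5,000 cells/well in BSA-containing (0.2%) medium.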

GIP-R = biological target: T2, GIP-R (Homo sapiens, UniProt P48546); assay: HitHunter cAMP assay (GIP-R); details: cAMP; for Emax: read-out: (Emax) GIP-R
T2 sequence (P48546 22-466): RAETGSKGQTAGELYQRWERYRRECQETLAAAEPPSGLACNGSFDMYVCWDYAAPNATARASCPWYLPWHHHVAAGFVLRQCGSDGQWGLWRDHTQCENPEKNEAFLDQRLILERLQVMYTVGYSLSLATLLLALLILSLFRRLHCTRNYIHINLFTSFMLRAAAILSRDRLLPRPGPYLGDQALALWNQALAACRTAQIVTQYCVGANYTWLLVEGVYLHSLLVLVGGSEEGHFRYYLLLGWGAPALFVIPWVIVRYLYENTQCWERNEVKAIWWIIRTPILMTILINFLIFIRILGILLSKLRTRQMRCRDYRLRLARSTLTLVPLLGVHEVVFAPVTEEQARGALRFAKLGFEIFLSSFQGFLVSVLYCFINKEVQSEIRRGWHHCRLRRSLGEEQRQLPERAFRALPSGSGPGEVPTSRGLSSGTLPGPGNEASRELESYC
Method in brief: (§1)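 cAMP accumulation read by luminescent HitHunter immunocompetition after 30 min room-temperature agonist stimulation. Agonists tested as 22-point twofold dilutions, in duplicate, on 10,000 cells/well in HBSS containing 625 μM IBMX, 10 mM HEPES and 0.2% BSA.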

GLP-1R [2] = biological target: T1, GLP-1R; assay: HitHunter cAMP assay (GLP-1R); details: cAMP; for Emax: read-out: (Emax) GLP-1R
Method in brief: as §1

[3] = PathHunter β-arrestin assay, read-out: β-arrestin activity EC50
[4] = Table 3, read-out: EC50 GIP-R/nM
[5] = Table 3A, read-out: EC50 GIP-R/nM
[6] = read-out: (Emax) GIP-R at 1 μM, Table 3
[7] = Table 3, read-out: EC50 GLP-1R/nM
[8] = Table 3A, read-out: EC50 GLP-1R/nM

T1 sequence (P43220 24-463): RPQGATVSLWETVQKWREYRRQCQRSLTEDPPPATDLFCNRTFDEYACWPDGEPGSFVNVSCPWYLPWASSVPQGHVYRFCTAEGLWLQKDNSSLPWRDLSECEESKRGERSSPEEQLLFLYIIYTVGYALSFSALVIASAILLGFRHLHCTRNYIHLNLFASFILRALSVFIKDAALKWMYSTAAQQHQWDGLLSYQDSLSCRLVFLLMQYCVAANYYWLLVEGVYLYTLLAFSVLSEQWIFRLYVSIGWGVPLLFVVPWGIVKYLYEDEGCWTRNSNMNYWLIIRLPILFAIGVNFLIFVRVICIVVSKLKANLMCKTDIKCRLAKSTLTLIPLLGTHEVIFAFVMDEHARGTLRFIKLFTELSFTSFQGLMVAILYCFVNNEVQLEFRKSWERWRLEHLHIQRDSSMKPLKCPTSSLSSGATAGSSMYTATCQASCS

Structure (SMILES)	EC50 (GLP-1R [1]; [3])	EC50 (GIP-R; [4])	EC50 (GIP-R; [5])	Emax at 1 µM (GIP-R; [6])	Emax at 1 µM (GIP-R; read-out: (Emax) GIP-R at 1 μM, Table 3A)	Emax (GLP-1R [2]; Table 3)	EC50 (GLP-1R [2]; [7])	Emax (GLP-1R [2]; Table 3A)	EC50 (GLP-1R [2]; [8])	EC50 (GLP-1R [1])	EC50 (GIP-R; EC50 GIP-R/nM, Table 3)	EC50 (GIP-R; EC50 GIP-R/nM, Table 3A)	Emax (GIP-R; Table 3)	Emax (GIP-R; Table 3A)	EC50 (GLP-1R [2]; EC50 GLP-1R/nM, Table 3)	EC50 (GLP-1R [2]; EC50 GLP-1R/nM, Table 3A)
CC[C@H](C)[C@H](NC(=O)[C@H](CO)NC(=O)[C@H](Cc1ccc(O)cc1)NC(=O)[C@H](CC(=O)O)NC(=O)[C@H](CO)NC(=O)[C@@H](NC(=O)[C@H](Cc1ccccc1)NC(=O)[C@@H](NC(=O)CNC(=O)[C@H](CCC(=O)O)NC(=O)[C@H]1CC[C@@H](C(=O)NCCN2C(=O)CSC2=O)CC1)[C@@H](C)O)[C@@H](C)O)C(=O)N[C@@H](Cc1ccc(O)cc1)C(=O)N[C@@H](CC(C)C)C(=O)N[C@@H](CC(=O)O)C(=O)N[C@@H](CCCCN)C(=O)N[C@@H](CCC(N)=O)C(=O)N[C@@H](C)C(=O)N[C@@H](C)C(=O)NC(C)(C)C(=O)N[C@@H](CCC(=O)O)C(=O)N[C@@H](Cc1ccccc1)C(=O)N[C@H](C(=O)N[C@@H](CC(N)=O)C(=O)N[C@@H](Cc1c[nH]c2ccccc12)C(=O)N[C@@H](CC(C)C)C(=O)N[C@@H](CC(C)C)C(=O)N[C@@H](C)C(=O)NCC(=O)NCC(=O)N1CCC[C@H]1C(=O)N[C@@H](CO)C(=O)N[C@@H](CO)C(=O)NCC(=O)N[C@@H](C)C(=O)N1CCC[C@H]1C(=O)N1CCC[C@H]1C(=O)N1CCC[C@H]1C(=O)N[C@@H](CO)C(=O)N[C@@H](CCCCN)C(N)=O)C(C)C [Compound 182]	> 1000 nM	100 to 1000 nM	100 to 1000 nM	12%	12%	96%	0.1 to 1 nM	96%	0.1 to 1 nM							
CC[C@H](C)[C@H](NC(=O)[C@H](CO)NC(=O)[C@H](Cc1ccc(O)cc1)NC(=O)[C@H](CC(=O)O)NC(=O)[C@H](CO)NC(=O)[C@@H](NC(=O)[C@H](Cc1ccccc1)NC(=O)[C@@H](NC(=O)CNC(=O)[C@H](CCC(=O)O)NC(=O)[C@H]1CC[C@H](C(=O)NCCN2C(=O)CSC2=O)CC1)[C@@H](C)O)[C@@H](C)O)C(=O)N[C@@H](Cc1ccc(O)cc1)C(=O)N[C@@H](CC(C)C)C(=O)N[C@@H](CC(=O)O)C(=O)N[C@@H](CCCCN)C(=O)N[C@@H](CCC(N)=O)C(=O)N[C@@H](C)C(=O)N[C@@H](C)C(=O)NC(C)(C)C(=O)N[C@@H](CCC(=O)O)C(=O)N[C@@H](Cc1ccccc1)C(=O)N[C@H](C(=O)N[C@@H](CC(N)=O)C(=O)N[C@@H](Cc1c[nH]c2ccccc12)C(=O)N[C@@H](CC(C)C)C(=O)N[C@@H](CC(C)C)C(=O)N[C@@H](C)C(=O)NCC(=O)NCC(=O)N1CCC[C@H]1C(=O)N[C@@H](CO)C(=O)N[C@@H](CO)C(=O)NCC(=O)N[C@@H](C)C(=O)N1CCC[C@H]1C(=O)N1CCC[C@H]1C(=O)N1CCC[C@H]1C(=O)N[C@@H](CO)C(=O)N[C@@H](CCCCN)C(N)=O)C(C)C [Compound 183]	> 1000 nM	> 1000 nM	> 1000 nM	1.4%		95%	10 to 100 nM	95%	10 to 100 nM							
CC[C@H](C)[C@H](NC(=O)[C@H](CO)NC(=O)[C@H](Cc1ccc(O)cc1)NC(=O)[C@H](CC(=O)O)NC(=O)[C@H](CO)NC(=O)[C@@H](NC(=O)[C@H](Cc1ccccc1)NC(=O)[C@@H](NC(=O)CNC(=O)[C@H](CCC(=O)O)NC(=O)CSCC(=O)NCCCCN1C(=O)CSC1=O)[C@@H](C)O)[C@@H](C)O)C(=O)N[C@@H](Cc1ccc(O)cc1)C(=O)N[C@@H](CC(C)C)C(=O)N[C@@H](CC(=O)O)C(=O)N[C@@H](CCCCN)C(=O)N[C@@H](CCC(N)=O)C(=O)N[C@@H](C)C(=O)N[C@@H](C)C(=O)NC(C)(C)C(=O)N[C@@H](CCC(=O)O)C(=O)N[C@@H](Cc1ccccc1)C(=O)N[C@H](C(=O)N[C@@H](CC(N)=O)C(=O)N[C@@H](Cc1c[nH]c2ccccc12)C(=O)N[C@@H](CC(C)C)C(=O)N[C@@H](CC(C)C)C(=O)N[C@@H](C)C(=O)NCC(=O)NCC(=O)N1CCC[C@H]1C(=O)N[C@@H](CO)C(=O)N[C@@H](CO)C(=O)NCC(=O)N[C@@H](C)C(=O)N1CCC[C@H]1C(=O)N1CCC[C@H]1C(=O)N1CCC[C@H]1C(=O)N[C@@H](CO)C(=O)N[C@@H](CCCCN)C(N)=O)C(C)C [Compound 184]						99%		99%		> 1000 nM	10 to 100 nM	10 to 100 nM	43%	43%	1 to 10 nM	1 to 10 nM
CC[C@H](C)[C@H](NC(=O)[C@H](CO)NC(=O)[C@H](Cc1ccc(O)cc1)NC(=O)[C@H](CC(=O)O)NC(=O)[C@H](CO)NC(=O)[C@@H](NC(=O)[C@H](Cc1ccccc1)NC(=O)[C@@H](NC(=O)CNC(=O)[C@H](CCC(=O)O)NC(=O)CN1C(=O)CSC1=O)[C@@H](C)O)[C@@H](C)O)C(=O)N[C@@H](Cc1ccc(O)cc1)C(=O)N[C@@H](CC(C)C)C(=O)N[C@@H](CC(=O)O)C(=O)N[C@@H](CCCCN)C(=O)N[C@@H](CCC(N)=O)C(=O)N[C@@H](C)C(=O)N[C@@H](C)C(=O)NC(C)(C)C(=O)N[C@@H](CCC(=O)O)C(=O)N[C@@H](Cc1ccccc1)C(=O)N[C@H](C(=O)N[C@@H](CC(N)=O)C(=O)N[C@@H](Cc1c[nH]c2ccccc12)C(=O)N[C@@H](CC(C)C)C(=O)N[C@@H](CC(C)C)C(=O)N[C@@H](C)C(=O)NCC(=O)NCC(=O)N1CCC[C@H]1C(=O)N[C@@H](CO)C(=O)N[C@@H](CO)C(=O)NCC(=O)N[C@@H](C)C(=O)N1CCC[C@H]1C(=O)N1CCC[C@H]1C(=O)N1CCC[C@H]1C(=O)N[C@@H](CO)C(=O)N[C@@H](CCCCN)C(N)=O)C(C)C [Compound 185]	> 1000 nM	> 1000 nM	> 1000 nM	8.6%		97%	0.1 to 1 nM	97%	0.1 to 1 nM							
CC[C@H](C)[C@H](NC(=O)[C@H](CO)NC(=O)[C@H](Cc1ccc(O)cc1)NC(=O)[C@H](CC(=O)O)NC(=O)[C@H](CO)NC(=O)[C@@H](NC(=O)[C@H](Cc1ccccc1)NC(=O)[C@@H](NC(=O)CNC(=O)[C@H](CCC(=O)O)NC(=O)c1ccc(C(=O)NCCN2C(=O)CSC2=O)cc1)[C@@H](C)O)[C@@H](C)O)C(=O)N[C@@H](Cc1ccc(O)cc1)C(=O)N[C@@H](CC(C)C)C(=O)N[C@@H](CC(=O)O)C(=O)N[C@@H](CCCCN)C(=O)N[C@@H](CCC(N)=O)C(=O)N[C@@H](C)C(=O)N[C@@H](C)C(=O)NC(C)(C)C(=O)N[C@@H](CCC(=O)O)C(=O)N[C@@H](Cc1ccccc1)C(=O)N[C@H](C(=O)N[C@@H](CC(N)=O)C(=O)N[C@@H](Cc1c[nH]c2ccccc12)C(=O)N[C@@H](CC(C)C)C(=O)N[C@@H](CC(C)C)C(=O)N[C@@H](C)C(=O)NCC(=O)NCC(=O)N1CCC[C@H]1C(=O)N[C@@H](CO)C(=O)N[C@@H](CO)C(=O)NCC(=O)N[C@@H](C)C(=O)N1CCC[C@H]1C(=O)N1CCC[C@H]1C(=O)N1CCC[C@H]1C(=O)N[C@@H](CO)C(=O)N[C@@H](CCCCN)C(N)=O)C(C)C [Compound 186]	> 1000 nM	> 1000 nM	> 1000 nM	4%		94%	1 to 10 nM	94%	1 to 10 nM							
CC[C@H](C)[C@H](NC(=O)[C@H](CO)NC(=O)[C@H](Cc1ccc(O)cc1)NC(=O)[C@H](CC(=O)O)NC(=O)[C@H](CO)NC(=O)[C@@H](NC(=O)[C@H](Cc1ccccc1)NC(=O)[C@@H](NC(=O)CNC(=O)[C@H](CCC(=O)O)NC(=O)CCC(=O)NCCN1C(=O)c2ccccc2C1=O)[C@@H](C)O)[C@@H](C)O)C(=O)N[C@@H](Cc1ccc(O)cc1)C(=O)N[C@@H](CC(C)C)C(=O)N[C@@H](CC(=O)O)C(=O)N[C@@H](CCCCN)C(=O)N[C@@H](CCC(N)=O)C(=O)N[C@@H](C)C(=O)N[C@@H](C)C(=O)NC(C)(C)C(=O)N[C@@H](CCC(=O)O)C(=O)N[C@@H](Cc1ccccc1)C(=O)N[C@H](C(=O)N[C@@H](CC(N)=O)C(=O)N[C@@H](Cc1c[nH]c2ccccc12)C(=O)N[C@@H](CC(C)C)C(=O)N[C@@H](CC(C)C)C(=O)N[C@@H](C)C(=O)NCC(=O)NCC(=O)N1CCC[C@H]1C(=O)N[C@@H](CO)C(=O)N[C@@H](CO)C(=O)NCC(=O)N[C@@H](C)C(=O)N1CCC[C@H]1C(=O)N1CCC[C@H]1C(=O)N1CCC[C@H]1C(=O)N[C@@H](CO)C(=O)N[C@@H](CCCCN)C(N)=O)C(C)C [Compound 187]						89%		89%		> 1000 nM	10 to 100 nM	10 to 100 nM	58%	58%	10 to 100 nM	10 to 100 nM
